Converted amounts (≈) assume the structure as drawn. Where two headings read alike, the source gives them in different places.
Key:
[1] = biological target: α-glucosidase (acetone powder in the intestinal canal of rat); assay: α-glucosidase inhibitory activity (4-methylumbelliferyl-α-D-glucoside, fluorometry); assay type: biochemical
Protocol: Next, α-glucosidase inhibitory activity (%) in regard to the embodiment 1 (evening primrose seed extract) was identified by the following method. As for the α-glucosidase for this measurement, 0.1 mol maleic acid buffer solution (pH 6.0) was added to the acetone powder in the intestinal canal of rat (SIGMA CHEMICAL CO.) and homogenized in ice by using a glass homogenizer, and then centrifugalized supernatant was diluted 20 times. Measuring method is shown below. […] After that, the reaction was suspended by adding 3 ml glycin buffer solution (pH 10.3) and the quantity of the isolated 4-methylumbelliferyl was determined by using a fluorometer (excitation wavelength: 366 nm & fluorescent wavelength: […]). Enzyme activity was calculated based on this determined value and inhibitory activity (%) was calculated by the following formula. […] Inhibitory activity (%)=100−Enzyme activity (%)

[2] = biological target: T1, α-amylase derived from pancreas of pig (Sus scrofa, UniProt P00690); assay: Inhibitory activity against α-amylase derived from pancreas of pig (same method); assay type: biochemical
T1 construct: the α-amylase derived from pancreas of pig; from tissue; host or cells: pig pancreas
T1 sequence (P00690 16-511): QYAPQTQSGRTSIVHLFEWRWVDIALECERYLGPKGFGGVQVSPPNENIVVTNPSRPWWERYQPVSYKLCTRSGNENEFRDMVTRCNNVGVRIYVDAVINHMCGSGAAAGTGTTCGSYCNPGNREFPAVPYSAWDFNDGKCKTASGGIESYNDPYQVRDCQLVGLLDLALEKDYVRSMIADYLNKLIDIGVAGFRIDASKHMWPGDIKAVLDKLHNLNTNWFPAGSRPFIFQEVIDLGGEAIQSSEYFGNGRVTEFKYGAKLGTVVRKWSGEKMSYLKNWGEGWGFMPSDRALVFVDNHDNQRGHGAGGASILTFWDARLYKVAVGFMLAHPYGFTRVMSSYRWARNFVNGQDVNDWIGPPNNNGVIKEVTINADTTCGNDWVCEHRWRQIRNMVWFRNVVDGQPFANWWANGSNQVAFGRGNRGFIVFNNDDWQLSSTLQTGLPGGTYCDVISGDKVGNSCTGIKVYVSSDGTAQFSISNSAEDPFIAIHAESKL

Row | Compound | IC50 (50% inhibitory concentration) against α-glucosidase [1] | IC50 [2] | IC50 ([2]; read-out: IC50 against the α-amylase derived from pancreas of pig (converted))
1 | O=c1oc2c(O)c(O)cc3c(=O)oc4c(O)c(O)cc1c4c23 [Ellagic acid] | >80 µg/mL |  | 
2 | O=C(O)c1cc(O)c(O)c(O)c1 [Gallic acid] | 800 µg/mL (≈ 4700 µM) | 2350 µM | 
3 | O=C(OC[C@H]1O[C@@H](OC(=O)c2cc(O)c(O)c(O)c2)[C@H](OC(=O)c2cc(O)c(O)c(O)c2)[C@@H](OC(=O)c2cc(O)c(O)c(O)c2)[C@@H]1OC(=O)c1cc(O)c(O)c(O)c1)c1cc(O)c(O)c(O)c1 [Pentagalloylglucose] |  |  | 21.3 µM
4 | Catechin | 800 µg/mL |  | 

Source: patent US6932990B2, “Carbohydrate absorption inhibitor and method for manufacturing the same” (Oryza Oil & Fat Chemical Co., Ltd., priority 2000, dated 2005)
